Reference: ChEMBL document CHEMBL1135025, “Synthesis of iodinated biochemical tools related to the 2-azetidinone class of cholesterol absorption inhibitors” (2002)
Active and inactive are the calls of the source. No cut-off for these calls is given here.

Key:
Cricetinae gen. sp. [1] = experiment: In vivo activity in a cholesterol-fed hamster assay was determined at 1 mg/kg/day; assay type: functional, Cricetulus griseus
Cricetinae gen. sp. [2] = experiment: Effective dose required to produe activity in cholesterol hamster assay was determined; na means not applicable; assay type: functional, organism-based; conditions: Cricetulus griseus
Cricetinae gen. sp. [3] = experiment: Effective dose required to produe activity in cholesterol hamster assay was determined; assay type: functional, Cricetulus griseus
Cricetinae gen. sp. [4] = experiment: In vivo activity in a cholesterol-fed hamster assay was determined at 50 mg/kg/day; assay type: functional, Cricetulus griseus
Cricetinae gen. sp. [5] = experiment: In vivo activity in a cholesterol-fed hamster assay was determined at 10 mg/kg/day; assay type: functional, Cricetulus griseus

O=C1[C@H](CC[C@H](O)c2ccc(I)cc2)[C@@H](c2ccc(O)cc2)N1c1ccc(F)cc1
Reduction (Cricetinae gen. sp. [1]): -54% | ED50 (Cricetinae gen. sp. [2]): inactive

O=C1[C@H](CC[C@H](O)c2ccc(F)cc2)[C@@H](c2ccc(O)cc2)N1c1ccc(I)cc1
Reduction (Cricetinae gen. sp. [1]): -63% | ED50 (Cricetinae gen. sp. [3]): 0.49 mg/kg/day

COc1ccc([C@@H]2[C@@H](CCCc3ccccc3)C(=O)N2c2ccc(I)cc2)cc1 (racemic)
ED50 (Cricetinae gen. sp. [2]): inactive | Reduction (Cricetinae gen. sp. [4]): -82%

COc1ccc([C@@H]2[C@@H](CCCc3ccc(I)cc3)C(=O)N2c2ccc(OC)cc2)cc1 (racemic)
ED50 (Cricetinae gen. sp. [2]): inactive | Reduction (Cricetinae gen. sp. [4]): -56%

O=C(O)[C@H]1OC(Oc2ccc([C@@H]3[C@@H](CC[C@H](O)c4ccc(F)cc4)C(=O)N3c3ccc(I)cc3)cc2)C(O)[C@@H](O)[C@@H]1O (single isomer, unassigned)
Reduction (Cricetinae gen. sp. [1]): -54% | ED50 (Cricetinae gen. sp. [2]): inactive

O=C1[C@H](CC[C@H](O)c2ccc(F)cc2)[C@@H](c2ccc(O)cc2)N1c1ccc(F)cc1 [EZETIMIBE]
Reduction (Cricetinae gen. sp. [1]): -100% | ED50 (Cricetinae gen. sp. [3]): 0.04 mg/kg/day

COc1ccc([C@@H]2[C@@H](CCCc3ccccc3)C(=O)N2c2ccc(OC)cc2)cc1 [SCH-48461]
Reduction (Cricetinae gen. sp. [5]): -93% | ED50 (Cricetinae gen. sp. [3]): 2.2 mg/kg/day
